Source: US7384966B2, “2-arylbenzothiazole derivatives” (Pharminxo Limited, priority 2004, dated 2008)

Test system: HCC 2998
Assay: MTT assay, 3 day exposure, HCC 2998
Type: cell-based
Settings: Homo sapiens, HCC 2998, 72 h, HCC 2998 (colon), MTT, 3 day exposure, triplicate; read-out: GI50 values in cell lines, HCC 2998
Method: (§1) A range of compounds were evaluated in MTT assays following 3 day exposure against a panel of two human breast cancer cell lines MCF-7 (ER+) and MDA 468 (ER−), and two colon cancer cell lines KM12 and HCC 2998. In general the breast cell lines were more sensitive to the agents and the MDA 468 line the most sensitive of the four (Table 2). The benchmark active compound was 5-fluoro-2-(3,4-dimethoxyphenyl)benzothiazole (1) with GI50 values<0.1 nM against the two breast cell lines. […] The most interesting series of compounds were those combining a 5-fluoro group with two oxygenated substituents in the 3′,4′-positions where minor, seemingly conservative, structural changes were associated with a dramatic variations in activity (when compared to 1). […] In summary, this in vitro screen led to the identification of the fluorinated 2-(3,4-dimethoxyphenyl)benzothiazole structure as a novel antitumor pharmacophore with the 5-fluoro analogue (1) astride a pinnacle of activity.
(§2) The assays/methods used to generate the results referred to herein are well known to those skilled in the art and therefore it has not been necessary to describe them in detail.

SMILES | GI50 [nM]
COc1ccc(-c2nc3cc(F)ccc3s2)cc1I [Compound 28, 5-Fluoro-2-(3-iodo-4-methoxyphenyl)benzothiazole] | 940
COc1cc(-c2nc3cc(F)ccc3s2)cc(OC)c1OC [Compound 43, 5-Fluoro-2-(3,4,5-trimethoxyphenyl)benzothiazole] | 21100
COCOc1ccc(-c2nc3cc(F)ccc3s2)cc1OC [Compound 44, 5-Fluoro-2-(3-methoxy-4-methoxymethyloxyphenyl)benzothiazole] | 53500
COc1ccc(-c2nc3cc(F)ccc3s2)cc1C [Compound 22, 5-Fluoro-2-(4-methoxy-3-methylphenyl)benzothiazole] | 540
COc1ccc(-c2nc3cc(F)ccc3s2)cc1 [Compound 29, 5-Fluoro-2-(4-methoxyphenyl)benzothiazole] | 12400
COc1ccc(-c2nc3cc(F)ccc3s2)cc1O [Compound 5, 5-Fluoro-2-(3-hydroxy-4-methoxyphenyl)benzothiazole] | 7600
COc1ccc(-c2nc3cc(F)ccc3s2)cc1Br [Compound 27, 2-(3-Bromo-4-methoxyphenyl)-5-fluorobenzothiazole] | 3450
CCOc1cc(-c2nc3cc(F)ccc3s2)ccc1OC [Compound 45, 2-(3-Ethoxy-4-methoxyphenyl)-5-fluorobenzothiazole] | 3320
COc1cc(OC)cc(-c2nc3cc(F)ccc3s2)c1 [Compound 42, 5-Fluoro-2-(3,5-dimethoxyphenyl)benzothiazole] | 5210
COc1ccc(-c2sc3ccc(F)cc3[n+]2[O-])cc1OC [Compound 53, 2-(3,4-Dimethoxyphenyl)-5-fluorobenzothiazole N-oxide] | 40300
COc1ccc(-c2nc3cc(F)ccc3s2)cc1OC(=O)N1CCOCC1 [Compound 19, 5-Fluoro-2-[3-(morpholin-4-ylcarbonyloxy)-4-methoxyphenyl]benzothiazole] | 7530
COc1ccc(-c2nc3cc(F)ccc3s2)cc1Cl [Compound 26, 5-fluoro 2-(3-Chloro-4-methoxyphenyl)benzothiazole] | 2500
Fc1ccc2sc(-c3ccc4c(c3)OCO4)nc2c1 [Compound 7, 5-Fluoro-2-(3,4-methylenedioxyphenyl)benzothiazole] | 22300
COc1ccc(-c2nc3cc(Cl)ccc3s2)cc1OC [Compound 23, 5-Chloro-2-(3,4-dimethoxyphenyl)benzothiazole] | 4880
COc1ccc(-c2nc3cc(Br)ccc3s2)cc1OC [Compound 24, 5-Bromo-2-(3,4-dimethoxyphenyl)benzothiazole] | 20000

Test system: MDA 468
Assay: MTT assay, 3 day exposure, MDA 468
Type: cell-based
Settings: Homo sapiens, 72 h; MDA 468 (breast), MTT, 3 day exposure, triplicate; read-out: GI50 values in cell lines, MDA 468
Method: as §1, §2

SMILES | GI50 [nM]
COc1ccc(-c2nc3cc(F)ccc3s2)cc1I [Compound 28, 5-Fluoro-2-(3-iodo-4-methoxyphenyl)benzothiazole] | 360
COc1cc(-c2nc3cc(F)ccc3s2)cc(OC)c1OC [Compound 43, 5-Fluoro-2-(3,4,5-trimethoxyphenyl)benzothiazole] | 2.1
COCOc1ccc(-c2nc3cc(F)ccc3s2)cc1OC [Compound 44, 5-Fluoro-2-(3-methoxy-4-methoxymethyloxyphenyl)benzothiazole] | 48
COc1ccc(-c2nc3cc(F)ccc3s2)cc1C [Compound 22, 5-Fluoro-2-(4-methoxy-3-methylphenyl)benzothiazole] | 58
COc1ccc(-c2nc3cc(F)ccc3s2)cc1 [Compound 29, 5-Fluoro-2-(4-methoxyphenyl)benzothiazole] | 330
COc1ccc(-c2nc3cc(F)ccc3s2)cc1O [Compound 5, 5-Fluoro-2-(3-hydroxy-4-methoxyphenyl)benzothiazole] | 50
COc1ccc(-c2nc3cc(F)ccc3s2)cc1Br [Compound 27, 2-(3-Bromo-4-methoxyphenyl)-5-fluorobenzothiazole] | 420
CCOc1cc(-c2nc3cc(F)ccc3s2)ccc1OC [Compound 45, 2-(3-Ethoxy-4-methoxyphenyl)-5-fluorobenzothiazole] | 92
COc1cc(OC)cc(-c2nc3cc(F)ccc3s2)c1 [Compound 42, 5-Fluoro-2-(3,5-dimethoxyphenyl)benzothiazole] | 310
COc1ccc(-c2sc3ccc(F)cc3[n+]2[O-])cc1OC [Compound 53, 2-(3,4-Dimethoxyphenyl)-5-fluorobenzothiazole N-oxide] | 760
COc1ccc(-c2nc3cc(F)ccc3s2)cc1Cl [Compound 26, 5-fluoro 2-(3-Chloro-4-methoxyphenyl)benzothiazole] | 480
Fc1ccc2sc(-c3ccc4c(c3)OCO4)nc2c1 [Compound 7, 5-Fluoro-2-(3,4-methylenedioxyphenyl)benzothiazole] | 570
COc1ccc(-c2nc3cc(Cl)ccc3s2)cc1OC [Compound 23, 5-Chloro-2-(3,4-dimethoxyphenyl)benzothiazole] | 1000
COc1ccc(-c2nc3cc(Br)ccc3s2)cc1OC [Compound 24, 5-Bromo-2-(3,4-dimethoxyphenyl)benzothiazole] | 770

Same assay, conditions: Homo sapiens; MDA 468 (breast), value in nM; read-out: GI50 values in cell lines, MDA 468

SMILES | GI50 [nM]
COc1ccc(-c2nc3cc(F)ccc3s2)cc1OC(=O)N1CCOCC1 [Compound 19, 5-Fluoro-2-[3-(morpholin-4-ylcarbonyloxy)-4-methoxyphenyl]benzothiazole] | 0.64

Test system: not given
Assay: not given
Settings: not given

SMILES | melting point [°C]
COc1ccc(-c2nc3cc(F)ccc3s2)cc1I [Compound 28, 5-Fluoro-2-(3-iodo-4-methoxyphenyl)benzothiazole] | 167
COc1cc(-c2nc3cc(F)ccc3s2)cc(OC)c1OC [Compound 43, 5-Fluoro-2-(3,4,5-trimethoxyphenyl)benzothiazole] | 120 to 122
COCOc1ccc(-c2nc3cc(F)ccc3s2)cc1OC [Compound 44, 5-Fluoro-2-(3-methoxy-4-methoxymethyloxyphenyl)benzothiazole] | 101 to 102
COc1ccc(-c2nc3cc(F)ccc3s2)cc1C [Compound 22, 5-Fluoro-2-(4-methoxy-3-methylphenyl)benzothiazole] | 120
COc1ccc(-c2nc3cc(F)ccc3s2)cc1 [Compound 29, 5-Fluoro-2-(4-methoxyphenyl)benzothiazole] | 123 to 124
COc1ccc(-c2nc3cc(F)ccc3s2)cc1O [Compound 5, 5-Fluoro-2-(3-hydroxy-4-methoxyphenyl)benzothiazole] | 169 to 172
COc1ccc(-c2nc3cc(F)ccc3s2)cc1Br [Compound 27, 2-(3-Bromo-4-methoxyphenyl)-5-fluorobenzothiazole] | 173 to 175
CCOc1cc(-c2nc3cc(F)ccc3s2)ccc1OC [Compound 45, 2-(3-Ethoxy-4-methoxyphenyl)-5-fluorobenzothiazole] | 136 to 139
COc1cc(OC)cc(-c2nc3cc(F)ccc3s2)c1 [Compound 42, 5-Fluoro-2-(3,5-dimethoxyphenyl)benzothiazole] | 115
COc1ccc(-c2sc3ccc(F)cc3[n+]2[O-])cc1OC [Compound 53, 2-(3,4-Dimethoxyphenyl)-5-fluorobenzothiazole N-oxide] | 201.4
COc1ccc(-c2nc3cc(F)ccc3s2)cc1OC(=O)N1CCOCC1 [Compound 19, 5-Fluoro-2-[3-(morpholin-4-ylcarbonyloxy)-4-methoxyphenyl]benzothiazole] | 170
Fc1ccc2sc(-c3ccc4c(c3)OCO4)nc2c1 [Compound 7, 5-Fluoro-2-(3,4-methylenedioxyphenyl)benzothiazole] | 161 to 164
COc1ccc(-c2nc3cc(Cl)ccc3s2)cc1OC [Compound 23, 5-Chloro-2-(3,4-dimethoxyphenyl)benzothiazole] | 154 to 155
COc1ccc(-c2nc3cc(Br)ccc3s2)cc1OC [Compound 24, 5-Bromo-2-(3,4-dimethoxyphenyl)benzothiazole] | 157 to 158

Test system: MCF-7, MDA 468, KM12 and HCC 2998
Assay: MTT assay, panel of four cell lines, results in words
Type: cell-based, human
Settings: compared to compound 1
Method: as §1

SMILES | growth inhibitory potency in words
COc1cc(-c2nc3cc(F)ccc3s2)cc(OC)c1OC [Compound 43, 5-Fluoro-2-(3,4,5-trimethoxyphenyl)benzothiazole] | retained nanomolar inhibitory potency against the MCF-7 cell and MDA 468 cell lines
COCOc1ccc(-c2nc3cc(F)ccc3s2)cc1OC [Compound 44, 5-Fluoro-2-(3-methoxy-4-methoxymethyloxyphenyl)benzothiazole] | dyschemotherapeutic effect
COc1ccc(-c2nc3cc(F)ccc3s2)cc1O [Compound 5, 5-Fluoro-2-(3-hydroxy-4-methoxyphenyl)benzothiazole] | dyschemotherapeutic effect
CCOc1cc(-c2nc3cc(F)ccc3s2)ccc1OC [Compound 45, 2-(3-Ethoxy-4-methoxyphenyl)-5-fluorobenzothiazole] | dyschemotherapeutic effect
COc1cc(OC)cc(-c2nc3cc(F)ccc3s2)c1 [Compound 42, 5-Fluoro-2-(3,5-dimethoxyphenyl)benzothiazole] | only low micromolar inhibitory potency
Fc1ccc2sc(-c3ccc4c(c3)OCO4)nc2c1 [Compound 7, 5-Fluoro-2-(3,4-methylenedioxyphenyl)benzothiazole] | dyschemotherapeutic effect
COc1ccc(-c2nc3cc(Cl)ccc3s2)cc1OC [Compound 23, 5-Chloro-2-(3,4-dimethoxyphenyl)benzothiazole] | essentially abolished inhibitory potency
COc1ccc(-c2nc3cc(Br)ccc3s2)cc1OC [Compound 24, 5-Bromo-2-(3,4-dimethoxyphenyl)benzothiazole] | essentially abolished inhibitory potency

Test system: MCF-7
Assay: MTT assay, 3 day exposure, MCF-7
Type: cell-based
Settings: Homo sapiens, MCF7, 72 h, MCF-7 (breast), MTT, 3 day exposure, triplicate; read-out: GI50 values in cell lines, MCF-7
Method: as §1, §2

SMILES | GI50 [nM]
COc1ccc(-c2nc3cc(F)ccc3s2)cc1I [Compound 28, 5-Fluoro-2-(3-iodo-4-methoxyphenyl)benzothiazole] | 820
COc1cc(-c2nc3cc(F)ccc3s2)cc(OC)c1OC [Compound 43, 5-Fluoro-2-(3,4,5-trimethoxyphenyl)benzothiazole] | 1.9
COCOc1ccc(-c2nc3cc(F)ccc3s2)cc1OC [Compound 44, 5-Fluoro-2-(3-methoxy-4-methoxymethyloxyphenyl)benzothiazole] | 65
COc1ccc(-c2nc3cc(F)ccc3s2)cc1C [Compound 22, 5-Fluoro-2-(4-methoxy-3-methylphenyl)benzothiazole] | 48
COc1ccc(-c2nc3cc(F)ccc3s2)cc1 [Compound 29, 5-Fluoro-2-(4-methoxyphenyl)benzothiazole] | 490
COc1ccc(-c2nc3cc(F)ccc3s2)cc1O [Compound 5, 5-Fluoro-2-(3-hydroxy-4-methoxyphenyl)benzothiazole] | 500
COc1ccc(-c2nc3cc(F)ccc3s2)cc1Br [Compound 27, 2-(3-Bromo-4-methoxyphenyl)-5-fluorobenzothiazole] | 850
CCOc1cc(-c2nc3cc(F)ccc3s2)ccc1OC [Compound 45, 2-(3-Ethoxy-4-methoxyphenyl)-5-fluorobenzothiazole] | 80
COc1cc(OC)cc(-c2nc3cc(F)ccc3s2)c1 [Compound 42, 5-Fluoro-2-(3,5-dimethoxyphenyl)benzothiazole] | 1230
COc1ccc(-c2sc3ccc(F)cc3[n+]2[O-])cc1OC [Compound 53, 2-(3,4-Dimethoxyphenyl)-5-fluorobenzothiazole N-oxide] | 920
COc1ccc(-c2nc3cc(F)ccc3s2)cc1Cl [Compound 26, 5-fluoro 2-(3-Chloro-4-methoxyphenyl)benzothiazole] | 760
Fc1ccc2sc(-c3ccc4c(c3)OCO4)nc2c1 [Compound 7, 5-Fluoro-2-(3,4-methylenedioxyphenyl)benzothiazole] | 20700
COc1ccc(-c2nc3cc(Cl)ccc3s2)cc1OC [Compound 23, 5-Chloro-2-(3,4-dimethoxyphenyl)benzothiazole] | 27900
COc1ccc(-c2nc3cc(Br)ccc3s2)cc1OC [Compound 24, 5-Bromo-2-(3,4-dimethoxyphenyl)benzothiazole] | 13600

Same assay, conditions: Homo sapiens, MCF7, MCF-7 (breast), value in nM; read-out: GI50 values in cell lines, MCF-7

SMILES | GI50 [nM]
COc1ccc(-c2nc3cc(F)ccc3s2)cc1OC(=O)N1CCOCC1 [Compound 19, 5-Fluoro-2-[3-(morpholin-4-ylcarbonyloxy)-4-methoxyphenyl]benzothiazole] | 0.085

Test system: KM 12
Assay: MTT assay, 3 day exposure, KM12
Type: cell-based, human
Settings: Homo sapiens, KM12, 72 h, KM 12 (colon), MTT, 3 day exposure, triplicate; read-out: GI50 values in cell lines, KM 12
Method: as §1, §2

SMILES | GI50 [nM]
COc1ccc(-c2nc3cc(F)ccc3s2)cc1I [Compound 28, 5-Fluoro-2-(3-iodo-4-methoxyphenyl)benzothiazole] | 6900
COc1cc(-c2nc3cc(F)ccc3s2)cc(OC)c1OC [Compound 43, 5-Fluoro-2-(3,4,5-trimethoxyphenyl)benzothiazole] | 13000
COCOc1ccc(-c2nc3cc(F)ccc3s2)cc1OC [Compound 44, 5-Fluoro-2-(3-methoxy-4-methoxymethyloxyphenyl)benzothiazole] | 19200
COc1ccc(-c2nc3cc(F)ccc3s2)cc1C [Compound 22, 5-Fluoro-2-(4-methoxy-3-methylphenyl)benzothiazole] | 18600
COc1ccc(-c2nc3cc(F)ccc3s2)cc1 [Compound 29, 5-Fluoro-2-(4-methoxyphenyl)benzothiazole] | 24600
COc1ccc(-c2nc3cc(F)ccc3s2)cc1O [Compound 5, 5-Fluoro-2-(3-hydroxy-4-methoxyphenyl)benzothiazole] | 18400
COc1ccc(-c2nc3cc(F)ccc3s2)cc1Br [Compound 27, 2-(3-Bromo-4-methoxyphenyl)-5-fluorobenzothiazole] | 6700
CCOc1cc(-c2nc3cc(F)ccc3s2)ccc1OC [Compound 45, 2-(3-Ethoxy-4-methoxyphenyl)-5-fluorobenzothiazole] | 5420
COc1cc(OC)cc(-c2nc3cc(F)ccc3s2)c1 [Compound 42, 5-Fluoro-2-(3,5-dimethoxyphenyl)benzothiazole] | 7550
COc1ccc(-c2sc3ccc(F)cc3[n+]2[O-])cc1OC [Compound 53, 2-(3,4-Dimethoxyphenyl)-5-fluorobenzothiazole N-oxide] | > 100000
COc1ccc(-c2nc3cc(F)ccc3s2)cc1OC(=O)N1CCOCC1 [Compound 19, 5-Fluoro-2-[3-(morpholin-4-ylcarbonyloxy)-4-methoxyphenyl]benzothiazole] | 7140
COc1ccc(-c2nc3cc(F)ccc3s2)cc1Cl [Compound 26, 5-fluoro 2-(3-Chloro-4-methoxyphenyl)benzothiazole] | 7050
Fc1ccc2sc(-c3ccc4c(c3)OCO4)nc2c1 [Compound 7, 5-Fluoro-2-(3,4-methylenedioxyphenyl)benzothiazole] | 25100
COc1ccc(-c2nc3cc(Cl)ccc3s2)cc1OC [Compound 23, 5-Chloro-2-(3,4-dimethoxyphenyl)benzothiazole] | 12400
COc1ccc(-c2nc3cc(Br)ccc3s2)cc1OC [Compound 24, 5-Bromo-2-(3,4-dimethoxyphenyl)benzothiazole] | 65200
